From patent publication US7807841B2, “Spiro-containing compounds and compositions as modulators of steroid hormone nuclear receptors” (IRM LLC, priority 2005, dated 2010)

Legend:
Androgen Receptor (AR) = target: T1, Androgen Receptor (AR) (Homo sapiens, UniProt P10275); test: Functional assay of androgen receptor antagonism (MMTV luciferase reporter in MDA-kb2 cells); assay type: cell-based; conditions: antagonism of dihydrotestosterone (0.3 nM)-induced AR activity
T1 sequence (P10275 1-920 Q868H): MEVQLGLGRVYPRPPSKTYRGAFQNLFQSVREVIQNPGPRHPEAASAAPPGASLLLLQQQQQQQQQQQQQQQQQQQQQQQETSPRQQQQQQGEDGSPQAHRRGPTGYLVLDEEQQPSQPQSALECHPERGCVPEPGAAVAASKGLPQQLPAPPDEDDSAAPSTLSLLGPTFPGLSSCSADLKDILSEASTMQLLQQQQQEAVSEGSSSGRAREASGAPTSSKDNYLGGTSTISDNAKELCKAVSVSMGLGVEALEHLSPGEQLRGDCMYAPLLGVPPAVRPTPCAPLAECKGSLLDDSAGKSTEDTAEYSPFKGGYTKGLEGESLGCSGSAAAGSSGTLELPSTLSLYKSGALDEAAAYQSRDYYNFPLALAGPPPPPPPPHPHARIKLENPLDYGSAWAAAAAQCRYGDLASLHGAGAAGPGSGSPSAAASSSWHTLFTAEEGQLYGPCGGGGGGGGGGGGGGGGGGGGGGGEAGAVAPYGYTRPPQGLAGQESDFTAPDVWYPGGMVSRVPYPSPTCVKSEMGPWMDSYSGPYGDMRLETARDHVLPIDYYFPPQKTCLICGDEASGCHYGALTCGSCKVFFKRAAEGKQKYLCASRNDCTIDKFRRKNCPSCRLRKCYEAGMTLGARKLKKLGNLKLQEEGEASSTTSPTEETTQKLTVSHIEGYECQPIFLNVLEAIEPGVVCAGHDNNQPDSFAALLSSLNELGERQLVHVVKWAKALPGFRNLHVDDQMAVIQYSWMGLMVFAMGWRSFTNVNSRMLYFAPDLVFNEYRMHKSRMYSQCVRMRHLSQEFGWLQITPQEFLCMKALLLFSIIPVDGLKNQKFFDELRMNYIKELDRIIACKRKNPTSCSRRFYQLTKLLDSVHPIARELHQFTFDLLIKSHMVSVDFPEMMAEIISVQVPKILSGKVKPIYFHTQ
Experimental: The AR antagonist activity of the compounds is determined with the MDA-Kb2 cell line (ATCC), which stably expresses the MMTV luciferase reporter. The MMTV promoter is a mouse mammary tumor virus promoter that contains androgen receptor response elements. […] Upon stimulation with AR ligands, such as dihydrotestosterone, the MMTV luciferase reporter can be activated.
The assay is performed in 384 well plates. Briefly, MDA-kb2 cells are plated in 384 well plates at a density of approximately 2.4×10^4 cells/well in 50 μl medium. The medium is supplemented with 5% charcoal-dextran treated fetal bovine serum (Hyclone). Twenty four hours later, compounds prepared in DMSO are transferred to the cells. The cells are then stimulated with 0.3 nM final concentration of dihydrotestosterone (Sigma) and incubated at 37° C. for another 24 hours before the luciferase activity is assayed with 20 μl of Bright-Glo (Promega) using a luminometer (CLIPR). The expression of luciferase is used as an indicator of dihydrotestosterone-induced AR trans-activation. Each compound is tested in duplicates with a 12-concentration titration. IC50 values (defined as the concentration of test compound required to antagonize 50% of dihydrotestosterone-induced AR activity) are determined from the dose-response curve.

[1] = target: T2, Progesterone Receptor (PR) (Homo sapiens, UniProt P06401); test: Functional assay of progesterone receptor antagonism (progesterone-induced alkaline phosphatase activity in T-47D cells); assay type: cell-based; conditions: antagonism of progesterone (3 nM)-induced PR activity, read-out: PR-T47D IC50
T2 sequence (P06401 679-933 limits assumed): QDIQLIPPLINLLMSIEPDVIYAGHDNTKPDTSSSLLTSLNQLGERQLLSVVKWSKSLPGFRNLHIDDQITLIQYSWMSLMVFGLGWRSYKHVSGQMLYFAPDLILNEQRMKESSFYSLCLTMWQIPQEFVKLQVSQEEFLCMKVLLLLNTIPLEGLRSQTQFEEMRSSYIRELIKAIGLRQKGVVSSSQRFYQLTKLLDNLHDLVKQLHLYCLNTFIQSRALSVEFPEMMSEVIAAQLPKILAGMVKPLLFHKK
Experimental: The PR antagonist activity of the compounds is determined by progesterone-induced alkaline phosphatase activity in the T-47D cell line (ATCC). In the T-47D breast cancer cells, progesterone specifically induces de novo synthesis of a membrane-associated alkaline phosphatase enzyme in a time and dose-dependent manner (Di Lorenzo et al., Cancer Research, 51: 4470-4475 (1991)). The alkaline phosphatase enzymatic activity can be measured with a chemiluminescent substrate, such as CSPD® (Applied Biosystems).
The assay is performed in 384 well plates. Briefly, T-47D cells are plated in 384 well plates at a density of approximately 2.5×10^4 cells/well in 50 μl medium supplemented with 10% fetal bovine serum. Twenty four hours later, the medium is aspirated. New medium that is free of phenol red and serum is added to the cells. Compounds prepared in DMSO are transferred to the cells. The cells are then stimulated with 3 nM final concentration of progesterone (Sigma) and incubated at 37° C. for another 24 hours before the alkaline phosphatase is assayed with 25 μl of CSPD® (Applied Biosystems) using a luminometer (CLIPR). The expression of alkaline phosphatase is used as an indicator of progesterone-induced PR trans-activation. Each compound is tested in duplicates with a 12-concentration titration. IC50 values (defined as the concentration of test compound required to antagonize 50% of progesterone-induced PR activity) are determined from the dose-response curve.

IC50 (Androgen Receptor (AR)) | IC50 [1] | SMILES
1000 to 10000 nM | 1000 to 10000 nM | CC12CCCC(=O)N1CC1(O2)c2ccccc2CCc2ccccc21 (centres unmarked) [FRS-14]
100 to 1000 nM | > 10000 nM | O=C1CCC2(C3CC3)OC3(CN12)c1ccccc1C=Cc1ccccc13 (centres unmarked) [FRS-10]
100 to 1000 nM | > 10000 nM | CC12CCC(=O)N1CC1(O2)c2ccccc2CCc2ccccc21 (centres unmarked) [FRS-13]
1000 to 10000 nM | 1000 to 10000 nM | CC(=O)N1CC2(OC1(C)C)c1ccccc1C=Cc1ccccc12 [SOXS-3]
100 to 1000 nM | > 10000 nM | O=C1CCCC2(C(F)(F)F)OC3(CN12)c1ccccc1C=Cc1ccccc13 (centres unmarked) [FRS-11]
> 10000 nM | 1000 to 10000 nM | CC1(C)OC2(CN1C(=O)Nc1ccc(F)cc1F)c1ccccc1C=Cc1ccccc12 [SOXS-1]
100 to 1000 nM | 1000 to 10000 nM | CCCC12CCC(=O)N1CC1(O2)c2ccccc2C=Cc2ccccc21 (centres unmarked) [FRS-9]
100 to 1000 nM | > 10000 nM | O=C1CCC2(c3ccccc3)OC3(CN12)c1ccccc1C=Cc1ccccc13 (centres unmarked) [FRS-2]
1000 to 10000 nM | 100 to 1000 nM | CC1(C)OC2(CN1S(C)(=O)=O)c1ccccc1C=Cc1ccccc12 [SOXS-4]
100 to 1000 nM | > 10000 nM | CC12CCC(=O)N1CC1(O2)c2ccccc2C=Cc2ccccc21 (centres unmarked) [FRS-1]
1000 to 10000 nM | > 10000 nM | O=C1CCC2(c3ccc(F)cc3)OC3(CN12)c1ccccc1C=Cc1ccccc13 (centres unmarked) [FRS-3]
1000 to 10000 nM | 100 to 1000 nM | CC(=O)N1CC2(OC13CCCCC3)c1ccccc1C=Cc1ccccc12 [SOXS-6]
1000 to 10000 nM | > 10000 nM | CC12CCCCC(=O)N1CC1(O2)c2ccccc2C=Cc2ccccc21 (centres unmarked) [FRS-6]
100 to 1000 nM | > 10000 nM | CC12CCC(=O)N1CC1(O2)c2ccccc2CCc2ccccc21 (single isomer, unassigned) [FRS-13 (Chiral Synthesis)]
100 to 1000 nM | 1000 to 10000 nM | O=C1CCC2(c3cccs3)OC3(CN12)c1ccccc1C=Cc1ccccc13 (centres unmarked) [FRS-8]
> 10000 nM | > 10000 nM | COc1ccc(C23CCC(=O)N2CC2(O3)c3ccccc3C=Cc3ccccc32)cc1 (centres unmarked) [FRS-5]
1000 to 10000 nM | > 10000 nM | Oc1ccc(C2=NCC3(O2)c2ccccc2C=Cc2ccccc23)cc1 [OXS-1]
100 to 1000 nM | > 10000 nM | CC12CCC(=O)N1CC1(O2)c2ccccc2C=Cc2ccccc21 (single isomer, unassigned) [FRS-1 (Chiral Synthesis)]
> 10000 nM | 1000 to 10000 nM | CC12CCCC(=O)N1CC1(O2)c2ccccc2C=Cc2ccccc21 (centres unmarked) [FRS-4]
